Experimental data published in US12250947B2, “Substituted azaspiro-cycles as herbicides” (SYNGENTA CROP PROTECTION AG, priority 2019, dated 2025).

How the values were obtained:
Assay type in all cases: in vivo
[1] = test system: Alopecurus myosuroides (ALOMY); assay: Herbicidal glasshouse test, pre-emergence, ALOMY; conditions: 250 g/Ha, evaluated after 13 days
Method: (§1) Seeds of a variety of test species are sown in standard soil in pots (Lolium perenne (LOLPE), Setaria faberi (SETFA), Alopecurus myosuroides (ALOMY), Echinochloa crus-galli (ECHCG), Avena fatua (AVEFA)). […] Compounds are applied at 250 g/h. The test plants are then grown in a glasshouse under controlled conditions in a glasshouse (at 24/16° C., day/night; 14 hours light; 65% humidity) and watered twice daily. After 13 days for pre and post-emergence, the test is evaluated for the percentage damage caused to the plant. […] NT=not tested.

[2] = test system: Avena fatua (AVEFA); assay: Herbicidal glasshouse test, pre-emergence, AVEFA; conditions: 250 g/Ha, evaluated after 13 days
Method: as §1

[3] = test system: wheat crop plants; assay: Crop phytotoxicity comparison, post-emergence, wheat
Method: (§2) Seeds of a variety of test species are sown in standard soil in pots (Lolium perenne (LOLPE), Setaria faberi (SETFA), Alopecurus myosuroides (ALOMY), Echinochloa crus-galli (ECHCG), Avena fatua (AVEFA)). After cultivation for one day (pre-emergence) or after 8 days cultivation (post-emergence) under controlled conditions in a glasshouse (at 24/16° C., day/night; 14 hours light; 65% humidity), the plants are sprayed with an aqueous spray solution derived from the formulation of the technical active ingredient in acetone/water (50:50) solution containing 0.5% Tween 20 (polyoxyethelyene sorbitan monolaurate, CAS RN 9005-64-5). Compounds are applied at 250 g/h. The test plants are then grown in a glasshouse under controlled conditions in a glasshouse (at 24/16° C., day/night; 14 hours light; 65% humidity) and watered twice daily. After 13 days for pre and post-emergence, the test is evaluated for the percentage damage caused to the plant. The biological activities are shown in the following table on a five-point scale (5=80-100%; 4=60-79%; 3=40-59%; 2=20-39%; 1=0-19%). NT=not tested.
(§3) Using procedures outlines above, wheat and barley crop plants are treated, post-emergence with compounds A1 or A4 of the present invention or comparator compound C1 (Compound A-38 from WO2014/096289) at the application rates indicated. The compounds were also applied in conjunction with the safener compound cloquintocet-mexyl (CQC) at 50 g/ha.

[4] = test system: Alopecurus myosuroides (ALOMY); assay: Herbicidal glasshouse test, post-emergence, ALOMY; conditions: 250 g/Ha, evaluated after 13 days
Method: as §1

[5] = test system: Echinochloa crus-galli (ECHCG); assay: Herbicidal glasshouse test, post-emergence, ECHCG; conditions: 250 g/Ha, evaluated after 13 days
Method: as §1

[6] = test system: Avena fatua (AVEFA); assay: Herbicidal glasshouse test, post-emergence, AVEFA; conditions: 250 g/Ha, evaluated after 13 days
Method: as §1

[7] = test system: Setaria faberi (SETFA); assay: Herbicidal glasshouse test, post-emergence, SETFA; conditions: 250 g/Ha, evaluated after 13 days
Method: as §1

[8] = test system: Echinochloa crus-galli (ECHCG); assay: Herbicidal glasshouse test, pre-emergence, ECHCG; conditions: 250 g/Ha, evaluated after 13 days
Method: as §1

[9] = test system: Lolium perenne (LOLPE); assay: Herbicidal glasshouse test, pre-emergence, LOLPE; conditions: 250 g/Ha, evaluated after 13 days
Method: as §1

[10] = test system: barley crop plants; assay: Crop phytotoxicity comparison, post-emergence, barley
Method: as §2, §3

[11] = test system: Lolium perenne (LOLPE); assay: Herbicidal glasshouse test, post-emergence, LOLPE; conditions: 250 g/Ha, evaluated after 13 days
Method: as §1

[12] = test system: Setaria faberi (SETFA); assay: Herbicidal glasshouse test, pre-emergence, SETFA; conditions: 250 g/Ha, evaluated after 13 days
Method: as §1

With `CC#Cc1cc(C)c(C2C(=O)CC3(CCN(C(=O)C(C)=O)CC3)CC2=O)c(C)c1` [Compound A1, 9-(2,6-dimethyl-4-prop-1-ynyl-phenyl)-3-(2-oxopropanoyl)-3-azaspiro[5.5]undecane-8,10-dione] the “percentage damage caused to the plant, five-point scale, ALOMY” value [1] was 5 (5=80-100%), the “percentage damage caused to the plant, five-point scale, AVEFA” value [2] was 5 (5=80-100%) and the “% phytotoxicity observed, Wheat” value ([3]; rate 30 g/ha) was 0%. The “% phytotoxicity observed, Wheat” value ([3]; rate 60 g/ha) was 10%, the “% phytotoxicity observed, Wheat” value ([3]; rate 60 g/ha + safener cloquintocet-mexyl (CQC) at 50 g/ha) was 0% and the “damage to the wheat and barley crops compared to prior art compound C1” value ([3]; wheat and barley crops, summary of Table B3) was “significantly less damaging”. For the same molecule, the “percentage damage caused to the plant, five-point scale, ALOMY” value [4] was 5 (5=80-100%), the “percentage damage caused to the plant, five-point scale, ECHCG” value [5] was 5 (5=80-100%) and the “percentage damage caused to the plant, five-point scale, AVEFA” value [6] was 5 (5=80-100%). For the same molecule, the “percentage damage caused to the plant, five-point scale, SETFA” value [7] was 5 (5=80-100%), the “percentage damage caused to the plant, five-point scale, ECHCG” value [8] was 5 (5=80-100%) and the “percentage damage caused to the plant, five-point scale, LOLPE” value [9] was 5 (5=80-100%). For the same molecule, the “% phytotoxicity observed, Barley” value ([10]; rate 30 g/ha) was 0%, the “% phytotoxicity observed, Barley” value ([10]; rate 60 g/ha) was 0% and the “percentage damage caused to the plant, five-point scale, LOLPE” value [11] was 5 (5=80-100%). The “percentage damage caused to the plant, five-point scale, SETFA” value [12] was 5 (5=80-100%).
